Non-standard residues stand in square brackets, D forms with d. Residues, ends and D or L forms follow the SMILES beside them.
Assays:
[1] = system: Cyto c release in U-87MG cells; experiment: Cytochrome c release by immunofluorescence; assay type: cell-based, human; conditions: 10 μM, 3 h, serum-free medium
Experimental: (§1) Figure 2 Mode of action of VDAC1-based peptides – interacting with- and detaching HK, releasing Cyto c, decreasing ATP level and inducing apoptosis A. Purified HK-II was fluorescently labeled using the NanoTemper protein-labeling Kit BLUE. […] Then, 3-5 μl of the samples were loaded into MST-grade glass capillaries and thermophoresis was measured using a Monolith-NT115 apparatus, as described in Materials and methods available online in Supplemental information. […] The final DMSO concentration in control and peptide-treated cells was 0.07%. Fixed cells were visualized using confocal microscopy (Olympus 1×81), as described in Materials and Methods available online in Supplemental information. […] The levels of HK in the supernatants were quantified and are presented as relative units. D. D-ΔN-Ter-Antp induces mitochondrial inner membrane depolarization analyzed as described in Materials and Methods available online in Supplemental information. […] Cells then were analyzed for Δψ using TMRM. Δψ is presented as percentage of control. […] Release of Cyto c from the mitochondria was analyzed by immunostaining using anti-Cyto c antibodies and confocal microscopy (Olympus 1×81) as described in Materials and Methods available online in Supplemental information. […] Quantification of apoptosis in control and peptide's treated cells are presented bellow the images. […]

[2] = system: cellular ATP levels in U-87MG cells; experiment: Cellular ATP levels (CellTiter-Glo); assay type: cell-based, human; conditions: 3 h, % of control, n=2 or 3
Experimental: as §1

[3] = system: SH-SY5Y cells; experiment: Cell death by PI staining and flow cytometry, SH-SY5Y; assay type: cell-based; conditions: human neuroblastoma, 6 h at 37°C, serum-free medium, Suppl Fig 1
Experimental: (§2) Cells (6×10^5 /ml) were incubated in 500 μl serum-free medium with the peptide of interest for 6 h at 37°C in the presence of 5% CO2. The cells were then trypsinized, centrifuged (1500xg, 5 min), washed with PBS and analyzed for cell death using propidium iodide (PI) staining and flow cytometer (Beckton-Dickinson, San Jose, CA) and BD CellQuest Pro software. Apoptotic cell death was also analyzed by PI and annexin V-FITC staining, and by acridine orange and ethidium bromide staining and light microscopy (Olympus LX2-KSP). […]
(§3) was subsequently visualized by incubating with DAB. […]
(§4) Supplementary Figure 1: VDAC1-based peptides induce dramatic cell death of several brain tumor-derived cell […]
(§5) Ter-Antp (●) peptide in serum-free appropriate growth medium for 6 h at 37°C. Cells were harvested, washed twice with PBS and cell death was analyzed by propidium iodide (PI) staining and ﬂow cytometry. D. Summary of IC50 values (μM) for the peptides with the indicated […]
(§6) (also on this page, place not known: www.impactjournals.com/oncotarget/ Oncotarget, Materials 2017 V , Supplementary) […]

[4] = system: Neuro-2a cells; experiment: Cell death by PI staining and flow cytometry, Neuro-2a; assay type: cell-based; conditions: mouse neuroblastoma, 6 h at 37°C, serum-free medium, Suppl Fig 1
Experimental: as §2
overnight at 4°C with primary antibodies (sources and After rinsing in water, the sections were counter-stained dilutions used detailed in Table S2) and washed with hematoxylin, and mounted with mounting medium.
PBST. For IHC, endogenous peroxidase activity was Finally, the sections were observed under a microscope blocked by incubating the sections in 3% H2O2 for 15 min. (Leica DM2500) and images were collected at 20× After washing thoroughly with PBST, the sections were magnification with the same light intensity and exposure incubated with the appropriate secondary antibodies for 2 time. Non-specific control experiments were carried out h. […]
Ter-Antp (●) peptide in serum-free appropriate growth medium for 6 h at 37°C. Cells were harvested, washed twice with PBS and cell death was analyzed by propidium iodide (PI) staining and ﬂow cytometry. […]

[5] = system: GL-261MG cells; experiment: Cell death by PI staining and flow cytometry, GL-261MG; assay type: cell-based; conditions: mouse glioblastoma, 6 h at 37°C, serum-free medium, Suppl Fig 1
Experimental: as §2, §3, §4, §5, §6

[6] = system: HK-I-GFP; experiment: HK-I-GFP detachment from mitochondria by confocal microscopy, U-87MG; assay type: cell-based, human; conditions: 7 μM, 3 h, serum-free medium
Experimental: as §1

Structure (SMILES) | Cyto c release [1] | decrease in cellular ATP levels [2] | cell death, SH-SY5Y [3] | cell death, Neuro-2a [4] | cell death, GL-261MG [5] | HK-I-GFP detachment (fluorescence distribution) [6]
CC[C@@H](C)[C@@H](NC(=O)[C@@H](CCCCN)NC(=O)[C@H](NC(=O)[C@@H](CCC(N)=O)NC(=O)[C@@H](CCCNC(=N)N)NC(=O)[C@@H](CC(C)C)NC(=O)CNC(=O)[C@@H](Cc1ccccc1)NC(=O)CNC(=O)[C@@H](Cc1ccc(O)cc1)NC(=O)CNC(=O)[C@@H](CCCCN)NC(=O)[C@H](NC(=O)[C@@H](Cc1ccccc1)NC(=O)[C@H](NC(=O)[C@@H](CC(=O)O)NC(=O)[C@H](N)CCCNC(=N)N)C(C)C)[C@H](C)O)[C@H](C)CC)C(=O)N[C@H](Cc1c[nH]c2ccccc12)C(=O)N[C@H](Cc1ccccc1)C(=O)N[C@H](CCC(N)=O)C(=O)N[C@H](CC(N)=O)C(=O)N[C@H](CCCNC(=N)N)C(=O)N[C@H](CCCNC(=N)N)C(=O)N[C@H](CCSC)C(=O)N[C@H](CCCCN)C(=O)N[C@H](Cc1c[nH]c2ccccc12)C(=O)N[C@H](CCCCN)C(=O)N[C@H](CCCCN)C(=O)O [D-ΔN-Ter-Antp] (H-[dR][dD][dV][dF][dT][dK]G[dY]G[dF]G[dL][dR][dQ][dI][dK][dI][dW][dF][dQ][dN][dR][dR][dM][dK][dW][dK][dK]-OH; N-terminus and C-terminus assumed) | partial Cyto c release | about 80% | effectively induce cell death | effectively induce cell death | effectively induce cell death | became diffuse
CC[C@H](C)[C@H](NC(=O)[C@H](C)NC(=O)[C@@H](N)Cc1c[nH]cn1)C(=O)N[C@@H](Cc1ccc(O)cc1)C(=O)N1CCC[C@H]1C(=O)N[C@@H](CCCNC(=N)N)C(=O)N[C@@H](Cc1c[nH]cn1)C(=O)N[C@@H](CO)C(=O)N[C@@H](Cc1c[nH]c2ccccc12)C(=O)N[C@H](C(=O)N[C@@H](Cc1c[nH]c2ccccc12)C(=O)N[C@@H](CCC(=O)O)C(=O)N[C@H](CCCCN)C(=O)N[C@H](CCCCN)C(=O)N[C@H](CC(C)C)C(=O)N[C@H](CCC(=O)O)C(=O)N[C@@H](C(=O)N[C@H](C)C(=O)N[C@@H](C(=O)N[C@H](CC(N)=O)C(=O)N[C@H](CC(C)C)C(=O)N[C@H](C)C(=O)N[C@H](Cc1c[nH]c2ccccc12)C(=O)N[C@@H](C(=O)N[C@H](C)C(=O)NCC(=O)N[C@H](CC(N)=O)C(=O)N[C@H](CO)C(=O)N[C@H](CC(N)=O)C(=O)N[C@@H](CCCCN)C(=O)N[C@@H](Cc1c[nH]c2ccccc12)C(=O)N[C@H](C(=O)N[C@@H](Cc1c[nH]c2ccccc12)C(=O)N[C@@H](CCCCN)C(=O)O)[C@@H](C)O)[C@H](C)O)C(C)C)[C@H](C)O)[C@@H](C)O [Tf-D-LP4] | partial Cyto c release | about 50% | effectively induce cell death | effectively induce cell death | effectively induce cell death | became diffuse

Reference: article PMC5458211, “Mitochondrial VDAC1-based peptides: Attacking oncogenic properties in glioblastoma” (Oncotarget, 2017)
